{
  "source": "patent EP0408284B1",
  "about": "“Amylin for treatment of bone disorders” (AMYLIN PHARMACEUTICALS, INC., priority 1989, dated 1996)",
  "key": {"[1]": {"tested_on": "disaggregated rat osteoclasts", "procedure": "(§1) Bone resorption assay: Human cortical bone slices were prepared as previously described (Zaidi et al. Quart J.Exp. Physiol. 73, p. 471 (1988). The slices were then cut into pieces, each measuring about 3mm². Newborn Wistar rats were killed by decapitation and their femora and tibiae removed. The bones were freed of adherent soft tissues and cut across their epiphyses in Medium 199 with foetal calf serum (FCS, 10%, v/v) and antibiotics (Flow Laboratories, UK, Ltd.). Osteoclasts were mechanically disaggregated by curetting the bones of each rat with a scalpel blade into Medium 199 (1 ml) and agitating the suspension with a pipette. Large fragments were allowed to settle for 10 seconds, before the supernatant was dropped onto 30 to 35 bone slices placed in a well of a Sterilin 100 18mm multiwell dish. Following incubation (37°C; 15 minutes), the bone slices were removed, washed gently in Minimal Essential Medium with FCS (10%, v/v) (MEM/FCS) and placed in separate wells (each well contained 5-6 slices and 900 µl MEM/FCS). […] After further incubation (37°C, 10% humidified CO₂, 10 minutes), 100 µl of MEM/FCS containing the test substance was added. Finally, bone slices were incubated overnight (37°C, 10% humidified CO₂, 18 hours) and quantified in terms of cell numbers and bone resorption. After fixation in glutaraldehyde, cells were stained with toluidine blue and examined by transmitted light microscopy. In order to rule out toxic effects, osteoclasts were counted on three slices for every variable and their numbers were then compared on hormone-treated and control bone slices. The slices were bleached by immersion in sodium hypochlorite solution (10% v/v) for 30 minutes and dehydrated in aqueous ethanol (80% v/v). The slices were then sputter coated with gold, randomized and examined in a Cambridge 360 Scanning Electron Microscope (Cambridge Instruments, Cambridgeshire). Osteoclastic excavations, each defined by a continuous border within an area of unresorbed bone were counted. The area of bone surface resorbed was calculated by tracing the outline of the concavities into an image processor (Sight Systems, Newbury, Berks)."}, "[2]": {"test": "in vivo rat hypocalcaemia assay: plasma calcium after intravenous injection of the peptide", "set-up": "species or system male Wistar rats", "method": "The effects of amylin and deamidated amylin on calcium metabolism in the rat and rabbit were investigated by two different methods. First, in vivo hypocalcaemic activity was assessed by measuring plasma calcium levels after injection of the peptide in 50 g rats. Next, in vitro resorption of cortical bone by disaggregated rat osteoclasts was quantified by scanning electron microscopy together with image analysis. […] Both are inhibitors of osteoclastic resorption and lower plasma calcium in both rats and rabbits. Described below are experiments which show the biological activity of both amylin and deamidated amylin using the in vivo rat hypocalcaemia assay and an in vitro bone resorption system. In addition, the effect on plasma calcium levels of infusion of high doses of amylin into rabbits is described.\nAnimal experiments: Fifty gram male Wistar rats (mean weight ± SEM, 51 ± 1.2g, Charles Rivers, Margate, Kent) were fasted overnight with ad lib access to water and used for experiments. […] Following injection the animals were bled into heparinized syringes via the dorsal aorta under light ether anaesthesia. In another set of experiments, rabbits (mean weight ± SEM, 3.2 ± 0.3 kg) were restrained in wooden cages and sedated with Hypnorm (1 ml) (Janssen, Denmark). […] Plasma was separated and calcium levels measured by DC Plasma Emission Spectrophotometry."}, "[3]": {"test": "plasma calcium during and after continuous intravenous infusion into rabbits", "format": "in vivo", "conditions": "infusion of 500 pmol per minute over 90 minutes", "method": "Animal experiments: Fifty gram male Wistar rats (mean weight ± SEM, 51 ± 1.2g, Charles Rivers, Margate, Kent) were fasted overnight with ad lib access to water and used for experiments. […] Following injection the animals were bled into heparinized syringes via the dorsal aorta under light ether anaesthesia. In another set of experiments, rabbits (mean weight ± SEM, 3.2 ± 0.3 kg) were restrained in wooden cages and sedated with Hypnorm (1 ml) (Janssen, Denmark). They were infused with saline or amylin (500 pmol min ⁻¹) for 90 minutes via a 21 G needle inserted into the lateral ear vein. The needle was connected to a pump via a polythene cannula (Portex, 00, Hythe, Kent). Blood samples were taken at timed intervals before and after the infusion was commenced. Plasma was separated and calcium levels measured by DC Plasma Emission Spectrophotometry."}, "[4]": {"test": "plasma calcium after intravenous infusion in patients with Paget's disease", "format": "in vivo", "method": "Furthermore, 1 hour of intravenous infusion of 150 pmol/Kg/min amylin into four human patients with Paget's disease reduced plasma calcium by amounts ranging from […]."}, "isolated osteoclasts": {"tested_on": "isolated osteoclasts", "test": "second messenger pathways and functional responses of isolated osteoclasts", "format": "cell-based", "from_the_text": "Thus, it appears that osteoclast activity may be restrained via two receptor types; calcitonin acts at both while amylin acts mainly via only one, reducing motility, reducing resorption and probably acting via the second messenger cAMP (Zaidi et. al. 1990, J. Endocrinol 126, 473-481)."}, "[5]": {"tested_on": "disaggregated rat osteoclasts", "test": "bone resorption assay: isolated osteoclasts on human cortical bone slices, scanning electron microscopy with image analysis", "procedure": "as §1"}, "[6]": {"conditions": "peptides not all compared in the same assay"}},
  "note": "Where two headings read alike, the source gives them in different places. Ends that are not written are not given here.",
  "data": [
    {"compound": "CC[C@H](C)[C@H](NC(=O)[C@H](C)NC(=O)CNC(=O)[C@H](Cc1ccccc1)NC(=O)[C@H](CC(N)=O)NC(=O)[C@H](CC(N)=O)NC(=O)[C@H](CO)NC(=O)[C@H](CO)NC(=O)[C@H](Cc1c[nH]cn1)NC(=O)[C@@H](NC(=O)[C@H](CC(C)C)NC(=O)[C@H](Cc1ccccc1)NC(=O)[C@H](CC(N)=O)NC(=O)[C@H](C)NC(=O)[C@H](CC(C)C)NC(=O)[C@H](CCCNC(=N)N)NC(=O)[C@H](CCC(N)=O)NC(=O)[C@@H](NC(=O)[C@H](C)NC(=O)[C@@H]1CSSC[C@H](NC(=O)[C@@H](N)CCCCN)C(=O)N[C@@H](CC(N)=O)C(=O)N[C@@H]([C@@H](C)O)C(=O)N[C@@H](C)C(=O)N[C@@H]([C@@H](C)O)C(=O)N1)[C@@H](C)O)C(C)C)C(=O)N[C@@H](CC(C)C)C(=O)N[C@@H](CO)C(=O)N[C@@H](CO)C(=O)N[C@H](C(=O)N[C@@H](CC(N)=O)C(=O)N[C@H](C(=O)NCC(=O)N[C@@H](CO)C(=O)N[C@@H](CC(N)=O)C(=O)N[C@H](C(=O)N[C@@H](Cc1ccc(O)cc1)C(=O)O)[C@@H](C)O)C(C)C)[C@@H](C)O", "note": "[deamidated amylin]", "values": [
      {"measurement": "cell number or viability", "setting": "[1]", "result": "without affecting cell number or viability"}
    ]},
    {"compound": "amylin (KCNTATCATQRLANFLVHSSNNFGAILSSTNVGSNTY-NH2; cysteine pairing not given here; UniProt P10997 34-70, looked up)", "values": [
      {"measurement": "effect on plasma calcium", "setting": "[2]; 50 g rats, intravenous injection of 500 pmol", "result": "marked hypocalcaemia"},
      {"measurement": "responses (hypocalcaemic and anti-resorptive activity) compared with calcitonin and CGRP", "setting": "[2]; summary covering the in vivo and the in vitro tests, order: asu1-7-eel CT>human CT>amylin/amylin amide>CGRP", "result": "less than for calcitonin, but significantly greater than those observed with CGRP"},
      {"measurement": "effect on plasma calcium", "setting": "[3]", "result": "marked lowering of plasma calcium"},
      {"measurement": "time calcium levels continued to fall after the end of the infusion", "setting": "[3]", "result": 30, "unit": "min"},
      {"measurement": "time until a trend to lower plasma calcium was apparent", "setting": "[3]", "result": "≤ 30", "unit": "min"},
      {"measurement": "potency compared with human calcitonin", "setting": "[4]", "result": "comparably potent to human calcitonin"},
      {"measurement": "cell retraction", "setting": "isolated osteoclasts", "result": "evoked neither of these responses"},
      {"measurement": "cytosolic calcium", "setting": "isolated osteoclasts", "result": "evoked neither of these responses"},
      {"measurement": "osteoclast motility", "setting": "isolated osteoclasts", "result": "inhibited osteoclast motility"},
      {"measurement": "total area of bone resorbed by isolated osteoclasts", "setting": "[5]; 18 hours incubation, concentration-dependent", "result": "marked reduction"},
      {"measurement": "cell number or viability", "setting": "[5]; osteoclasts counted on hormone-treated and control bone slices", "result": "without affecting cell number or viability"},
      {"measurement": "potency compared with CGRP", "setting": "[5]; [6]", "result": "more potent than CGRP"},
      {"measurement": "potency compared with human calcitonin", "setting": "[5]; [6]", "result": "less potent than human calcitonin by about an order or magnitude"}
    ]},
    {"compound": "calcitonin [reference compound]", "values": [
      {"measurement": "cell retraction", "setting": "isolated osteoclasts", "result": "caused cell retraction"},
      {"measurement": "cytosolic calcium", "setting": "isolated osteoclasts", "result": "elevated cytosolic calcium"},
      {"measurement": "osteoclast motility", "setting": "isolated osteoclasts", "result": "inhibited osteoclast motility"}
    ]}
  ]
}
